Measurements published in PMC4626104, “Inhibition on Proteasome β1 Subunit Might Contribute to the Anti-Cancer Effects of Fangchinoline in Human Prostate Cancer Cells” (PLoS ONE, 2015).

Columns and labels:
PC-3 tumor xenografts = experiment: PC-3 tumor xenograft experiments (tumor volume, TUNEL); type: in vivo, nude mice
Protocol: Male nude immunodeficient mice Balb/c-nu-nu, aged 4 weeks, were purchased from Shanghai Experimental Animal Center. All procedures involving animals were approved by the Institutional Animal Care and Use Committee of Shanghai Institute of Materia Medica, Chinese Academy of Sciences. On day 0, PC-3 cells (8×10^6 cells) suspended in 0.2 mL of serum-free RPMI 1640 were inoculated s.c. in the right flank of each mouse (six mice per group). 14 days after inoculation, mice were randomly divided into 3 groups and started injection with either vehicle control or fangchinoline at 25 mg/kg (ip., QD) or 50 mg/kg (ip., QD). Tumor sizes were measured every 4 days using calipers and their volumes were calculated using a standard formula: width^2×length/2. The relative tumor volume (RTV) was defined as the ratio of the tumor volume at a indicated time and the tumor volume at the start of drug treatment. Body weight was measured daily. On day 30 after inoculation, mice were sacrificed by CO2 inhalation and tumor xenografts were dissected. To visualize apoptosis in tumor xenografts, TUNEL labeling was conducted to detect apoptotic nuclei using In Situ Death Detection Kit (Roche Molecular Biochemicals). Briefly, tumor xenografts were fixed with 10% formalin solution at room temperature for 24 h and then embedded by paraffin. Specimens were heated for 1h by Water Bath-Slide Drier (LEICA H1 1220, German), incubated with dimethylbenzene for two times (8 min each) and then incubated with 100%, 95%, 90% and 85% ethanol for two times (3 min each). Specimens were then incubated with 0.1M Citrate buffer (pH 6.0) for microwave irradiation. After washing with PBS for two times (3 min each), slices were incubated with reaction buffer (from the In Situ Death Detection Kit) in a humid atmosphere at 37°C for 1 h. Slices were then washed with PBS three times (3 min each) to remove unincorporated fluorescein–deoxyuridine triphosphate. Nuclei were counterstained with 4,6-diamidino-2-phenylindole (DAPI) 1 μg/mL for 3 min and then washed with PBS for three times (3 min each). Images were captured using a 20X objective (Olympus BX51, Japan) on an epifluorescence microscope. Furthermore, the proteasome activities of tumor xenografts were assayed. Briefly, tumor xenografts were homogenerized in proteasome activity assay buffer using the FastPrep System (MP FastPrep-24, U.S.A), then centrifugation at 4°C for 30 min. The supernatants were then used for assay of proteasome activities using method as described above for analysis of cellular proteasome activities.

[1] = system: T1, proteasome of PC-3 tumor xenografts; experiment: Proteasome activities of tumor xenografts; type: in vivo, nude mice
T1 construct: from tissue; host or cells: PC-3 tumour xenografts from Balb/c-nu-nu mice, homogenate supernatant
Protocol: Cells were treated with either solvent control (0.1% DMSO), fangchinoline at different concentrations, or 1 μM carfilzomib (positive control) for 24 h at 37 °C. The enzymatic activities of cellular proteasome in cell lysate were measured as reported in our previous paper. Briefly, cells were harvested, washed with PBS and then lysed in proteasome activity assay buffer for 30 min at 4°C. The homogenate was then centrifuged at 12000 × g for 30 min at 4°C. The supernatant was collected as whole cell extract and the protein content in the supernatant was measured with the Bradford reagent. Catalytic activities of cellular proteasome were assayed by adding whole cell extract (containing 30 μg protein) to 100 μL of proteasome activity assay buffer containing 50 μM fluorogenic peptide substrates such as Z-LLE-AMC for detecting C-L activity, Z-ARR-AMC for detecting T-L activity or Suc-LLVY-AMC for detecting CT-L activity, respectively. The release of fluorogenic AMC from the peptide substrates was then measured as described above.
Male nude immunodeficient mice Balb/c-nu-nu, aged 4 weeks, were purchased from Shanghai Experimental Animal Center. […] Tumor sizes were measured every 4 days using calipers and their volumes were calculated using a standard formula: width^2×length/2. […] Body weight was measured daily. […]

[2] = system: ubiquitinated proteins, IκB-α, Bax, p27 in PC-3 cells; experiment: Western blotting of ubiquitinated proteins and proteasome substrates in PC-3 cells; type: cell-based, human
Protocol: Western blotting assay was conducted as described before. Briefly, an aliquot of protein (100 μg) sample was loaded onto a 12% SDS gel, separated electrophoretically, and transferred to a Nitrocellulose membrane (Bio-Rad). After the membrane was incubated with 10 mM TBS with […] and 5% dehydrated skim milk to block nonspecific protein binding, the membrane was incubated with primary antibodies overnight at 4°C. The primary antibodies (all from Cell Signaling Technology) used were rabbit polyclonal antibody against human IκB-α (#4812, 1:400), Bax (#2772, 1:400), proteasome β1 subunit (PSMB6) (#13267, 1:500), β-actin (#4967, 1:400) and mouse monoclonal antibody against human p27 Kip1 (#3688, 1:400) or ubiquitin (#3936, 1:1000). After TBS washes, blots were then incubated with secondary antibody for 2 h at room temperature at a 1:1000 dilution and then visualized using chemiluminescence (Pierce Biotechnology, Rockford, IL, USA). The secondary antibodies used were HRP-linked goat anti-rabbit IgG (#7074) and HRP-linked horse anti-mouse IgG (#7076), both from Cell Signaling Technology.

[3] = 25mg/kg ip. QD, day 14 after inoculation (start of treatment)
[4] = 25mg/kg ip. QD, day 17 after inoculation
[5] = 25mg/kg ip. QD, day 21 after inoculation
[6] = 25mg/kg ip. QD, day 24 after inoculation
[7] = 25mg/kg ip. QD, day 27 after inoculation
[8] = 25mg/kg ip. QD, day 30 after inoculation
[9] = 50mg/kg ip. QD, day 14 after inoculation (start of treatment)
[10] = 50mg/kg ip. QD, day 17 after inoculation
[11] = 50mg/kg ip. QD, day 21 after inoculation
[12] = 50mg/kg ip. QD, day 24 after inoculation
[13] = 50mg/kg ip. QD, day 27 after inoculation
[14] = 50mg/kg ip. QD, day 30 after inoculation

COc1ccc2cc1Oc1ccc(cc1)C[C@H]1c3cc(c(OC)cc3CCN1C)Oc1c(O)c(OC)cc3c1[C@H](C2)N(C)CC3 [fangchinoline]
Tumor volume (Maximum) (PC-3 tumor xenografts; [3]): 519.59 mm^3
Tumor volume (Mean ± SEM) (PC-3 tumor xenografts; [3]): 370.0±42.37 mm^3
Tumor volume (Maximum) (PC-3 tumor xenografts; [4]): 512.11 mm^3
Tumor volume (Mean ± SEM) (PC-3 tumor xenografts; [4]): 356.5±51.63 mm^3
Tumor volume (Maximum) (PC-3 tumor xenografts; [5]): 812.68 mm^3
Tumor volume (Mean ± SEM) (PC-3 tumor xenografts; [5]): 577.7±53.05 mm^3
Tumor volume (Maximum) (PC-3 tumor xenografts; [6]): 1147.52 mm^3
Tumor volume (Mean ± SEM) (PC-3 tumor xenografts; [6]): 955.0±78.87 mm^3
Tumor volume (Maximum) (PC-3 tumor xenografts; [7]): 1439.56 mm^3
Tumor volume (Mean ± SEM) (PC-3 tumor xenografts; [7]): 1248±50.73 mm^3
Tumor volume (Maximum) (PC-3 tumor xenografts; [8]): 1655.05 mm^3
Tumor volume (Mean ± SEM) (PC-3 tumor xenografts; [8]): 1413±61.89 mm^3
Tumor volume (Maximum) (PC-3 tumor xenografts; [9]): 356.43 mm^3
Tumor volume (Mean ± SEM) (PC-3 tumor xenografts; [9]): 348.4±3.470 mm^3
Tumor volume (Maximum) (PC-3 tumor xenografts; [10]): 402.14 mm^3
Tumor volume (Mean ± SEM) (PC-3 tumor xenografts; [10]): 321.3±21.46 mm^3
Tumor volume (Maximum) (PC-3 tumor xenografts; [11]): 462.36 mm^3
Tumor volume (Mean ± SEM) (PC-3 tumor xenografts; [11]): 374.8±37.58 mm^3
Tumor volume (Maximum) (PC-3 tumor xenografts; [12]): 812.28 mm^3
Tumor volume (Mean ± SEM) (PC-3 tumor xenografts; [12]): 593.8±593.8 mm^3
Tumor volume (Maximum) (PC-3 tumor xenografts; [13]): 1008.40 mm^3
Tumor volume (Mean ± SEM) (PC-3 tumor xenografts; [13]): 857.0±41.00 mm^3
Tumor volume (Maximum) (PC-3 tumor xenografts; [14]): 1263.09 mm^3
Tumor volume (Mean ± SEM) (PC-3 tumor xenografts; [14]): 1120±66.28 mm^3
Growth of PC-3 xenografts (relative tumor volume) (PC-3 tumor xenografts; 25 and 50 mg/kg ip. QD): dose-dependently inhibit
Apoptosis in PC-3 xenografts (TUNEL labeling) (PC-3 tumor xenografts; animals treated with fangchinoline): apoptosis was induced
Significance of decrease in proteasome activity of tumor xenografts ([1]; 50 mg/kg group): significant
Proteasome activities of tumor xenografts compared with vehicle control ([1]; fangchinoline-treated groups (25 and 50 mg/kg)): decreased
Ubiquitinated IκBα (Ub-IκBα), Ub-p27 and Ub-Bax levels [2]: dose-dependently and time-dependently induced increase
Treatment time after which accumulation of ubiquitinated proteins was observed ([2]; 27 μM): 1 h
Lowest dose at which accumulation of ubiquitinated proteins was observed ([2]; 24 h treatment): 8 µM
